Experiment [1] relates to B. fragilis NCTC 9344. As to the kind of experiment: MIC/MBC against Bacteroides fragilis strain C. It is filed as cell-based. The settings on record: for MBC: NCTC9344, 99.9% reduction in viable count; for MIC: NCTC9344, 48 h, 48 hours, 37° C., anaerobic. As to the method: The screening panel utilized in this Example consisted of 5 strains of Bacteroides fragilis. All assays were carried out in 96-well microtitre plates. If an isolate was obtained from either a culture collection or clinical source, the isolate was immediately inoculated into Wilkens-Chalgren broth (Oxoid) and incubated at 37° C. in an anaerobic chamber in an atmosphere of 85% nitrogen, 10% carbon dioxide, and 5% hydrogen for 48 hours. At the end of this time, the viable count was about 10^12 organisms/ml broth. A 1 ml aliquot of each culture was placed in an ampoule and quick frozen in acetone-dry ice mixture and stored in liquid nitrogen. When an inoculum was utilized in an assay, one of the ampoules was thawed and diluted with fresh broth to yield a suspension having a count of 5×10^5 organisms/ml. A 100 μl aliquot of this suspension was inoculated into each well of the microtitre plate. A 2 mg sample of the test compound was dissolved in 0.2 ml of a suitable solvent such as dimethylsulfoxide, polyethylene glycol 200 or methanol. […] After addition of the test solution the final inoculum level was 10^5 cells/ml. The plates were incubated for 48 hours at 37° C. in the anaerobic chamber. The Minimum Inhibitory Concentration (MIC) was read visually. The MIC is defined as the lowest concentration at which there is no detectable growth. The Minimum Bactericidal Concentration (MBC) was determined by taking 50 μl aliquot from each well and placing it in fresh medium. […] The strains of Bacteroides fragilis utilized in the above procedure are identified by letter in accordance with the following legend: |C B. fragilis NCTC 9344

Experiment [2] relates to Costridium difficile NCIB 10666. As to the kind of experiment: MIC vs panel of anaerobes. It is filed as cell-based, C. difficile. Conditions: Clostridioides difficile, NCIB10666, C. difficile NCIB 10666; procedures of Example 40; read-out: MIC.
Experiment [3] concerns Campylobacter fetus ss. jejuni ATCC 29428. The experiment can be described thus: MIC vs panel of anaerobes. The settings on record: ATCC29428, procedures of Example 40. It is filed as cell-based.
The test system of experiment [4] is Campylobacter fetus ss. jejuni NCTC 10842. As to the kind of experiment: MIC vs panel of anaerobes. It is filed as cell-based. Conditions: NCTC10842, procedures of Example 40.
Experiment [5] concerns Fusobacterium necrophorum ATCC 11295. The experiment can be described thus: MIC vs panel of anaerobes. It is filed as cell-based. Conditions: Fusobacterium necrophorum, ATCC11295, Fusobacterium necrophorum ATCC 11295; procedures of Example 40; read-out: MIC.
In experiment [6] the test system is Bacteroides melanogenicus NCTC 9336. The experiment can be described thus: MIC vs panel of anaerobes. It is filed as cell-based. The settings on record: NCTC9336, procedures of Example 40.
For experiment [7], the system named is Peptococcous magnus. The experiment can be described thus: MIC vs panel of anaerobes. It is filed as cell-based. The settings on record: procedures of Example 40.
The test system of experiment [8] is Peptostreptococcus. The experiment can be described thus: MIC vs panel of anaerobes. It is filed as cell-based. The settings on record: procedures of Example 40.
The test system of experiment [9] is Propionebacterium acnes NCTC 737. As to the kind of experiment: MIC vs panel of anaerobes. It is filed as cell-based. Conditions: procedures of Example 40.
Experiment [10] has as its system B. fragilis 23745. Conditions: Bacteroides fragilis, 23745, in Mus musculus, po, 48 h, log CFU/ml liver homogenate, test compound.
[11] abbreviates: read-out: DOSE GIVING 1 LOG REDUCTION (molar), p.o., after infection and twice daily for 2 days.
[12] abbreviates: read-out: DOSE GIVING 1 LOG REDUCTION, p.o., after infection and twice daily for 2 days.

What is called MBC is the smallest concentration meeting the test's criterion for killing. A higher MBC goes with less potent killing. The MIC is the lowest concentration that inhibits growth of the organism.

The structures appear in SMILES notation. ≈ marks a conversion by molar mass, not a printed value. Read-outs that look alike come from different tables or passages of the source. Bounds are passed on as bounds.

In experiment [1], `CC1(C)CN=C2C(c3ccccc3)=[N+]([O-])c3ccncc3N2C1` [Example 14, 2,3-Dihydro-2,2-dimethyl-5-phenyl-1H-pyrimido[1,2-a]pyrido[4,3-e]pyrazine 6-oxide] had an MBC of 6.2 µg/mL (≈ 20.2 µM). Also, the MIC in experiment [1] turned out to be 6.2 µg/mL (≈ 20.2 µM); in experiment [2], 1.5 µg/mL (≈ 4.9 µM); in experiment [3] it was 100 µg/mL (≈ 326 µM); in [4], 50 µg/mL (≈ 163 µM); in experiment [5] it was 25 µg/mL (≈ 81.6 µM); in experiment [6], 100 µg/mL (≈ 326 µM). Further, the MIC was 100 µg/mL (≈ 326 µM) in [7], 100 µg/mL (≈ 326 µM) in experiment [8] and over 100 µg/mL in [9].
Consider `CC1(C)CN=C2C(c3ccccc3)=[N+]([O-])c3cnccc3N2C1` [Example 15, 2,3-Dihydro-2,2-dimethyl-5-phenyl-1H-pyrimido[1,2-a]pyrido[3,4-e]pyrazine 6-oxide], for which, in [1], the MBC is under 0.8 µg/mL. Moreover, the MIC in experiment [1] was under 0.8 µg/mL; in [2] it was 1.5 µg/mL (≈ 4.9 µM); in [5], under 0.8 µg/mL; in experiment [6], 100 µg/mL (≈ 326 µM); in experiment [7], under 0.8 µg/mL; in experiment [8], 100 µg/mL (≈ 326 µM). The MIC in [9] was over 100 µg/mL. For the same compound, the ED (1 log reduction) in experiment [10] (setting [11]) turned out to be 13.4 µmol/kg; in experiment [10] (setting [12]), 4.1 mg/kg.
In turn, `CC1(C)CN=C2C(c3ccccc3)=[N+]([O-])c3cccnc3N2C1` [Example 16, 2,3-Dihydro-2,2-dimethyl-5-phenyl-1H-pyrimido[1,2-a]pyrido[3,2-e]pyrazine 6-oxide] had an MBC in [1] of 1.5 µg/mL (≈ 4.9 µM). Further, the MIC in experiment [1] is 1.5 µg/mL (≈ 4.9 µM); in experiment [2] it was under 0.8 µg/mL; in experiment [5], under 0.8 µg/mL; in experiment [6], 25 µg/mL (≈ 81.6 µM); in experiment [7], under 0.8 µg/mL; in experiment [8], 25 µg/mL (≈ 81.6 µM). The same compound yielded an MIC in [9] of 100 µg/mL (≈ 326 µM). In addition, the results for the ED (1 log reduction) in experiment [10] (setting [11]) and in [10] (setting [12]) were 2.6 µmol/kg and 0.8 mg/kg, respectively.
With `CC1(C)CN=C2C(c3ccc(Cl)cc3)=[N+]([O-])c3cnccc3N2C1` [Example 17, 2,3-Dihydro-5-(4-chlorophenyl)-2,2-dimethyl-1H-pyrimido[1,2-a]pyrido[3,4-e]pyrazine 6-oxide], in experiment [1], the MBC is under 0.8 µg/mL. In addition, the MIC in experiment [1] is under 0.8 µg/mL; in [2] it was under 0.8 µg/mL; in [3] it was 100 µg/mL (≈ 293 µM); in experiment [4], 50 µg/mL (≈ 147 µM); in experiment [5], 3.1 µg/mL (≈ 9.1 µM); in experiment [6] it was over 100 µg/mL. The MIC in experiment [8] and in [9] was over 100 µg/mL throughout. The ED (1 log reduction) was found to be 9.3 µmol/kg in [10] (setting [11]) and 3.2 mg/kg in experiment [10] (setting [12]).
On to `CC1(C)CN=C2C(c3ccc(Cl)cc3)=[N+]([O-])c3cccnc3N2C1` [Example 18, 2,3-Dihydro-5-(4-chlorophenyl)-2,2-dimethyl-1H-pyrimido[1,2-a]pyrido[3,2-e]pyrazine 6-oxide], for which the MBC in experiment [1] is 1.5 µg/mL (≈ 4.4 µM). For the same compound, the MIC in experiment [1] was 1.5 µg/mL (≈ 4.4 µM); in [2] it was under 0.8 µg/mL; in experiment [5], under 0.8 µg/mL; in experiment [6], 25 µg/mL (≈ 73.4 µM); in [7], under 0.8 µg/mL; in experiment [8] it was 25 µg/mL (≈ 73.4 µM). Moreover, in experiment [9], the MIC was found to be 100 µg/mL (≈ 293 µM). For the same compound, the ED (1 log reduction) in experiment [10] (setting [11]) was determined as 53.4 µmol/kg; in [10] (setting [12]), 17.4 mg/kg.
Compound `Cc1ccc(C2=[N+]([O-])c3cccnc3N3CC(C)(C)CN=C23)cc1` [Example 20, 2,3-Dihydro-2,2-dimethyl-5-(4-methylphenyl)-1H-pyrimido[1,2-a]pyrido[3,2-e]pyrazine 6-oxide] came in with an MBC in [1] of 1.5 µg/mL (≈ 4.68 µM). In addition, the MIC in experiment [1] was 1.5 µg/mL (≈ 4.68 µM); in [2] it was under 0.8 µg/mL; in experiment [3], 25 µg/mL (≈ 78 µM); in experiment [4], 6.2 µg/mL (≈ 19.4 µM); in [5] it was 1.5 µg/mL (≈ 4.68 µM); in [6], 50 µg/mL (≈ 156 µM). Also, the MIC in [7] was 25 µg/mL (≈ 78 µM); in [8] it was 50 µg/mL (≈ 156 µM); in experiment [9] it was over 100 µg/mL. In addition, the ED (1 log reduction) in [10] (setting [11]) was found to be 13 µmol/kg; in experiment [10] (setting [12]), 4.2 mg/kg.
As for `COc1ccc(C2=[N+]([O-])c3cccnc3N3CC(C)(C)CN=C23)cc1OC` [Example 22, 2,3-Dihydro-5-(3,4-dimethoxyphenyl)-2,2-dimethyl-1H-pyrimido[1,2-a]pyrido[3,2-e]pyrazine 6-oxide], the MBC in [1] was under 0.8 µg/mL. Besides, the MIC in [1] was under 0.8 µg/mL; in experiment [2], under 0.8 µg/mL; in experiment [3] it was 50 µg/mL (≈ 136 µM); in experiment [4], 50 µg/mL (≈ 136 µM); in experiment [5] it was under 0.8 µg/mL; in experiment [6], over 100 µg/mL. Besides, the MIC in experiment [8] is 100 µg/mL (≈ 273 µM); in experiment [9], over 100 µg/mL. The ED (1 log reduction) worked out at 7.3 µmol/kg in [10] (setting [11]) and 2.7 mg/kg in experiment [10] (setting [12]).

The record behind these values is patent US4761414A, “Substituted 1H-pyrimido[1,2-a-]-pyrido[3,4-e]pyrazine 6 oxides” (G. D. Searle & Co., priority 1986, dated 1988).
